Measured values taken from patent US10640468B2, “1-(4-(2-((1-(3,4-difluorophenyl)-1H-pyrazol-3-Yl)methoxy)ethyl)piperazin-1- Yl)ethanone salts” (ESTEVE PHARMACEUTICALS S.A., priority 2015, dated 2020).
Where “and” joins values, the source holds several entries; their conditions need not be identical. Equal values may be shown once. Where a name gives a salt, the structure may show the parent alone.

What was measured:
[1] = acid; cited from earlier work
[2] = Solubility study of Example 0 in solvents (volumes needed to dissolve the solid); type: physicochemical
Procedure: Previously a solubility study was performed with compound Example 0. The results are shown in Table 1 wherein number of volumes needed to dissolve the solid in the corresponding solvent at room temperature is shown. If at 50 volumes, dissolution was not observed at room temperature, mixture was heated to reflux temperature.

[3] = pKa of the free base compound; type: physicochemical
[4] = Thermodynamic solubility at pH 7.4; type: physicochemical; conditions: maleate
Procedure: General protocol for thermodynamic solubility at pH 7.4 and pH 2 are described. • A) Thermodynamic Solubility at pH 7.4
Phosphate buffer at pH 7.4 (25 mM) was prepared as follows:
A solution 25 mM of Na2HPO4.12H2O (for 1 L of water, weight 8.96 g) was prepared
A solution 25 mM de KH2PO4 (for 1 L of water weight 3.4 g) was prepared.
Disodium phosphate solution (812 mL) and potassium phosphate (182 mL) solution were mixed and pH checked to be 7.4.
Equipment • Precision analytical balance Mettler Toledo AT20. • Analytical balance Mettler Toledo PJ300. • Liquid chromatograph Waters Alliance 2695. • Stirrer Thermomixer Control of Eppendorf a 25° C. y 1250 rpm • pHmeter with combined semi-micro electrode.
Around 4 mg of compound in an HPLC vial (by duplicate) was dissolved in 1 mL of buffer solution. After stirring in Thermomixer Comfort system for 24 hours at 25° C., in order to achieve thermodynamic equilibrium, solution was centrifuged at 3000 rpm for 15 minutes.
The resulting upper layer was collected with a glass pipette and transferred to the HPLC vials in order to inject them (10 μL) directly to the HPLC instrument.
Standards were made in methanol to ensure overall compound solubility. Preparation of standard calibrators is illustrated below:
Sol.A: 4 mg in 1 mL methanol (4000 μg/mL)
Sol.B: 0.5 mL Sol.A to 5 mL with methanol (400 μg/mL)
Sol.C: 1 mL Sol.B to 10 mL with methanol (40 μg/mL)
Sol.D: 5 mL […] to 50 mL with methanol (4 μg/mL)
Sol.E: 4 mL Sol.D to 10 mL with methanol (1.6 μg/mL)
Calibration curve was created through 10 μL injection of standards, beginning with the more diluted standard. Blanks were also injected, for checking the absence of contamination.
10 μl of test substance were injected, by duplicate, and the average peak area interpolated in the calibration curve (see Tables Examples below).
Chromatographic Conditions • Column: XBridge C18 (or similar) 2.5 μm 4.6×50 mm • Temperature: 35° C. • Mobile phase: ACN/ammonium bicarbonate 10 mM. • Gradient: 0-3.5 min: from 15% CAN to 95% CAN • 3.5-5 min: 95% ACN • 5-6 min: 95 a 15% ACN • 6-8 min: 15% ACN • Flow: 1.5 mL/min • Detection: around the maximum UV wavelength. • B) Thermodynamic Solubility at pH 2

[5] = Pharmacokinetics after single oral administration to male Wistar rat; type: in vivo
Procedure: The pharmacokinetics of Example 1 and 2 were tested using the following protocol:
Male Wistar rats weighing 250 to 300 g (±20) supplied by Harlan were used. Water and food was available ad libitum throughout the study.
Administration and Sample Collection
Two rats (R1 and R2) were used in the pharmacokinetic oral studies.
A single dose of tested compound was administered by oral gavage [10 mg/kg as free base (Example 0)] in 0.5% hydroxypropyl methylcellulose (1 mg/ml). From each rat, serial blood samples were collected at 15 and 30 min, 1, 2, 3, 5, 7 and 24 h.
Blood was collected from the saphenous veins into heparinized tubes. Plasma was obtained by blood centrifugation at 4° C. and 2280×g for 10 min and kept at −80° C. until analysis.
Tested compound concentration in plasma samples was determined by least-squares linear regression using a ten-point calibration curve. The calibration curve was prepared in blank plasma from a working solution of 1 mg/ml in DMSO.
Samples were thawed at room temperature on the day of analysis. After plasma protein precipitation of samples and calibration standards with acetonitrile (1:4.3; v/v), the mixture was vortexed and centrifuged (4° C. and 16090×g for 10 min).
Tested compound plasma concentrations were determined by high performance liquid chromatography-triple quadrupole mass spectrometry (HPLC-MS/MS) through the following method:
Column: Atlantis® T3 column (2.1×100 mm, 3 μm) (Waters).
Mobile phase: A: 0.0155% Formic water • B: 0.0155% Formic Acetonitrile
Autosampler wash: Solvent 1:Acetonitrile • Solvent 2: 5% Acetonitrile+95% Water
Standard pharmacokinetic parameters, such as area under the curve (AUC), peak plasma concentration (Cmax), time to peak concentration (tmax), oral bioavailability (F), total plasma clearance (Cl), volume of distribution at steady-state (Vss), mean residence time (MRT) and terminal half-life (t1/2), were determined by non-compartmental analysis of the plasma concentration-time curves (Phoenix v. 6.2.1.51, Pharsight, C A).

[6] = animal 1, 10 mg/kg oral, maleate
[7] = animal 2, 10 mg/kg oral, maleate
[8] = mean of 2 rats, 10 mg/kg oral, listed as example 2, maleate, 10 mg/kg
[9] = mean of 2 rats, 10 mg/kg oral, maleate, 10 mg/kg

For `CCS(=O)(=O)O` [Ethanesulfonic acid], the pKa1 [1] is given as 2.05.

For `CCCCCC(=O)O` [Caproic acid], the pKa1 [1] is given as 4.88.

With `CC(=O)N1CCN(CCOCc2ccn(-c3ccc(F)c(F)c3)n2)CC1` (as salt: maleate) [Example 2] the melting point was 160 to 162 °C.

`CC(=O)N1CCN(CCOCc2ccn(-c3ccc(F)c(F)c3)n2)CC1` (as salt: hydrochloride) [Example 1] showed a melting point of 155 to 157 °C.

For `CC(=O)N1CCN(CCOCc2ccn(-c3ccc(F)c(F)c3)n2)CC1` [Example 0, 1-(4-(2-((1-(3,4-difluorophenyl)-1H-pyrazol-3-yl)methoxy)ethyl)piperazin-1-yl)ethanone], the “number of volumes needed to dissolve the solid” value (shortened to “number of volumes needed”) ([2]; CH2Cl2, room temperature) was 3 volumes, the “number of volumes needed” value ([2]; CH3CN, room temperature) was 15 volumes and the “number of volumes needed” value ([2]; EtOH, room temperature) was 4 volumes. The “number of volumes needed” value ([2]; H2O, room temperature, heated to reflux at 50 volumes, no dissolution observed) was > 50^[1] volumes, the “number of volumes needed” value ([2]; MIBK, room temperature) was 17 volumes and the “number of volumes needed” value ([2]; THF, room temperature) was 4 volumes. For the same compound, the pKa [3] was 6.37.

For `CCCCCCCC(=O)O` [Caprylic acid], the pKa1 [1] is given as 4.89.

In the case of `CCCCCCCCCC(=O)O` [Capric acid], the pKa1 [1] is listed as 4.9.

For `O=[N+]([O-])O` [Nitric acid], the pKa1 [1] is listed as “Strong”.

For `Br` [Hydrobromic acid], the pKa1 [1] is listed as “Strong”.

For `O=S(=O)(O)c1ccccc1` [Benzensulphonic acid], the pKa1 [1] is listed as 0.7.

In the case of `CC(=O)N1CCN(CCOCc2ccn(-c3ccc(F)c(F)c3)n2)CC1` [Example 2, maleate], the “Conc. Mean” value ([4]; pH 7.4, mean of 4 injections) is reported as 4468.706 µg/mL, the Conc. ([4]; pH 7.4, single HPLC injections of duplicate vials) is reported as 4593.8 µg/mL and 4408.7 µg/mL and 4338.8 µg/mL and 4533.6 µg/mL and the AUC [5, 6] is reported as 2227 ng·h/mL. The Cmax [5, 6] was 1386 ng/mL, the t1/2 [5, 6] was 1.7 h and the F ([5]; animal 1, 10 mg/kg oral, mean AUC after i.v. administration used for calculation, maleate) was 50%. For the same compound, the AUC [5, 7] was 1768 ng·h/mL, the Cmax [5, 7] was 1039 ng/mL and the t1/2 [5, 7] was 1.2 h. For the same compound, the tmax [5, 7] was 30 min, the F ([5]; animal 2, 10 mg/kg oral, mean AUC after i.v. administration used for calculation, maleate) was 40% and the AUC [5, 8] was roughly 2000 ng·h/mL. The tmax [5, 8] was 22.8 min, the AUC [5, 9] was 1997 ng·h/mL and the “t1/2 (terminal half-life)” value [5, 9] was 1.5 h. The tmax [5, 9] was 24 min, the “F (oral bioavailability)” value ([5]; mean of 2 rats, 10 mg/kg oral, mean AUC after i.v. administration used for calculation, maleate, 10 mg/kg) was 45% and the Plasma concentration ([5]; rat R1, 0.5 h, 10 mg/kg oral, maleate, 10 mg/kg) was 1251 ng/mL. For the same compound, the Plasma concentration ([5]; rat R1, 1 h, 10 mg/kg oral, maleate, 10 mg/kg) was 907 ng/mL, the Plasma concentration ([5]; rat R1, 2 h, 10 mg/kg oral, maleate, 10 mg/kg) was 289 ng/mL and the Plasma concentration ([5]; rat R1, 3 h, 10 mg/kg oral, maleate, 10 mg/kg) was 157 ng/mL. It also gave a Plasma concentration ([5]; rat R1, 5 h, 10 mg/kg oral, maleate, 10 mg/kg) of 45 ng/mL, a Plasma concentration ([5]; rat R1, 7 h, 10 mg/kg oral, maleate, 10 mg/kg) of 41 ng/mL and a Plasma concentration ([5]; rat R2, 0.5 h, 10 mg/kg oral, maleate, 10 mg/kg) of 1039 ng/mL. It also gave a Plasma concentration ([5]; rat R2, 1 h, 10 mg/kg oral, maleate, 10 mg/kg) of 639 ng/mL, a Plasma concentration ([5]; rat R2, 2 h, 10 mg/kg oral, maleate, 10 mg/kg) of 317 ng/mL and a Plasma concentration ([5]; rat R2, 3 h, 10 mg/kg oral, maleate, 10 mg/kg) of 95 ng/mL. The Plasma concentration ([5]; rat R2, 5 h, 10 mg/kg oral, maleate, 10 mg/kg) was 75 ng/mL and the Plasma concentration ([5]; rat R2, 7 h, 10 mg/kg oral, maleate, 10 mg/kg) was 13 ng/mL.
